Data taken from patent publication US11497796B2, “Agents directed against a cis RGMa/neogenin interaction or lipid rafts and use of the same in methods of treatment” (UNIVERSITY HEALTH NETWORK, priority 2013, dated 2022).

B1: 4Ig: four immunoglobulin-like domains of Neogenin, amino acids 1 to 383 of Accession No. AAC59662 (SEQ ID NO:1) (protein, listed as Gallus gallus)
chain: RSGPRSPLTGSVVRTFTPFYFLVEPMDILSVRGASVIMNCSSYCETPPKIEWKKDGTLLNLVSDDRRQLLPDGSLLINSVVHSKHNKPDEGYYQCVATVESLGSIVSRTAKLTVAGLPRFTSQPELSSVYKGNSAILNCEVNVDLAPFVRWEQDRQPLSLDDRVFKLPSGALLIGNATDTDGGFYRCVIESGGTPKYSEEAELKILPDPEEPQSLVFVRQPSSLTKVTGQNAVFPCVAGGFPTPYVRWTKNGEELITEDSERFALRAGGSLLISDVTEEDVGTYTCIADNENETIEAQAELAVQVPPEFLKRPANIYAHESMDIVFECEVTGKPTPTVKWVKNGDVVIPSDYFKIVKEHNLQVLGLVKSDEGFYQCIAENDVGNAQAGAQLIILDLDVAIPTLPPTSLTSATNDHLAPATTGPLPTAPRDVVATLVSTRFIRLTWRTPVSDPQGDNLTYSIFYTKEGINRERVENTSRPGETQVMIQNLMPETVYVFRVVAQNKHGHGESSAPLKVATQPEVQLPGPAPNIRAYAGSPTSVTVTWETPLSGNGEIQNYKLYYMEKGQDSEQDVDVAGLSYTITGLKKYTEYSFRVVAYNKHGPGVSTQDVVVRTLSDVPSAAPQNLTLEARNSKSIMLHWQPPPAGTHSGQITGYKIRYRKVSRKSDVTESVGGTQLFQLIEGLERGTEYNFRIAAMTVNGTGPATDWVSAETFESDLDESRVPEVPSSLHVRPLVTSIVVSWTPPENQNIVVRGYAIGYGIGSPHAQTIKVDYKQRYYTIENLDPSSHYVITLKAFNNVGEGIPLYESAVTRPHSDTSEVDLFVINAPYTPVPDPSPMMPPVGVQASILSHDTIRITWADNSLPKNQKITDARYYTVRWKTNIPANTKYKTANATTLSYLVTGLKPNTLYEFSVMVTKGRRSSTWSMTAHGTTFELVPTSPPKDVTVVSKEGKPRTIIVNWQPPSEANGKITGYIIYYSTDVNAEIHDWVIEPVVGNRLTHQIQELTLDTPYYFKIQARNSKGMGPMSEAVQFRTPKAESSDKMPNDQASGSAGKGSRPVDVGPDYKPPLSGSNSPHGSPTSPLDSNMLLVIIVSVGVITIVIVVIVAVFCTRRTTSHQKKKRAACKSVNGSHKYKGNSKDVKPPDLWIHHERLELKPIDKSPDPNPIMTDTPIPRNSQDITPVDNSMDSNIHQRRNSYRGHESEDSMSTLAGRRGMRPKMMMPFDSQPPQPVISAHPIHSLDNPHHHFHSGSLASPTRSYLHHQVSPWPVGTSMSHSDRANSTESVRNTPSSDTMPASSSQPCADHQDPDSSSGAYLGSAQEEDAAQSLPTAHVRPSHPLKSFAVPAVPAAGSAYDPTLPSTPLLTQQAPSHPVHSVKTASIGTLGRTRPPMPVVVPSAPDVQETTRMLEDSESSYEPDELTKEMAHLEGLMKDLNAITTA
modifications: Neogenin - Accession No. AAC59662

How the values were obtained:
[1] = system: retinal ganglion cells (RGCs); test: Retinal organotypic cultures (whole mounts), propidium iodide cell death; type: cell-based; conditions: for reduction of cell death (relative PI intensity): agent in the medium
Method: (A) HEK293 cells that stably express RGMa (FIG. 11) were transfected with empty plasmid (Ctrl) or Neogenin (Neo). Neogenin induced cell death (arrows) when compared to control. (B) Quantification of cell death in Neogenin-transfected cells that were incubated in BSA (Neo+Ctrl), 4Ig (1 μg/ml), N-Raft (1 μg/ml), Noggin (100 nM), or MβCD (10 mM). […] Data were average±SEM (n=3 independent experiments), *p<0.0001. (C) Representative images and (D) Quantification of cell death in chick E5 tecta electroporated with GFP- and a Neogenin-expression plasmid and then injected with N-RGMa50-99 (Ctrl; 1 μg/ml), 4Ig (1 μg/ml), or N-Raft (1 μg/ml) and subjected to TUNEL assay. […] Data were an average±SEM from 3 different tecta/conditions (*p<0.001). Bar, 100 μm. (E) Representative images and (F) Quantification of retinal whole mounts incubated for 4 days with control peptide (1 μg/ml), 4Ig (1 μg/ml), N-Raft (1 μg/ml), or MβCD (10 mM) and dead cells were stained with Propidium Iodide (PI). Images from 9 whole mounts per condition from 3 independent experiments were taken at the same intensities and the fluorescence measured using ImageJ. […] Bar, 500 μm. (G) Fluorescence micrographs of flat-mounted retinas depicting Fluorogold-labeled retinal ganglion cells (RGCs) in injured retinas at 14 days following axotomy. Control retinas (Ctrl) had few surviving RGCs. 4Ig, N-raft or MβCD increased cell survival. Bar, 200 μm. (H) Representations of the retinal areas selected in our analyses. […] Data were average±SEM (n=6 eyes), *p<0.01.
For this study, retinal organotypic cultures were used, in which axotomy of retinal ganglion cells (RGCs) deprived the cells of tropic factors and induced apoptosis. Cell death was detected using propidium iodide (PI) and all images were taken at the same intensity with the RGC-layer in focus. Cell death was gauged by measuring the relative PI intensity of whole mounts.

[2] = system: temporal retinal explants (axonal outgrowth); test: Retinal explants outgrowth assay; type: cell-based, chick; conditions: for outgrowth of retinal explants grown on RGMa proteins, peptide added to medium: 5 μg/ml in the medium
Method: Poly-L-Lysine (SIGMA; 10 μg/ml) coated glass coverslips were treated with Laminin (Invitrogen; 10 μg/ml) and RGMa proteins (5 μg/ml) and incubated for 3 hours at room temperature. Temporal retinal explants were cultured on protein-coated surfaces for 18 hours. To disrupt the lipid rafts, explants were pretreated with 10 mM methyl-β-cyclodextrin (MβCD) for 12 minutes or 2 U/ml cholesterol oxidase (CO) for 1 hour at 37° C. Explants were then fixed with 4% paraformaldehyde (PFA) and stained with Alexa488-phalloidin. Fiber length was quantified using Image Pro 5.0. For immunolocalization, explants were treated with Cholera Toxin B-FITC (C1655; Sigma; 10 mg/mL) and patched, fixed and stained with Neogenin antibody. Retinal ganglion cells (RGCs) were electroporated with RGMa-His and cultured for 18 hours. The cells were fixed and stained with Neogenin and His-tag antibodies.
Retinal explants outgrowth assay. Poly-L-Lysine (PLL; SIGMA; 10 μg/ml) coated glass coverslips were treated with Laminin (10 μg/ml; Invitrogen) and RGMa proteins (5 μg) and incubated for 3 hrs at room temperature. PLL treated coverslips were coated with myelin overnight (6 μg/cm2), followed by coating with Laminin. Temporal retinal explants were cultured on either myelin or protein-coated surfaces in DMEM F-12 media (2% chick serum, 10% FBS) for 18 h. To disrupt rafts, explants were pre-treated with 10 mM MβCD for 12 min or 2 U/ml CO for 1 h at 37° C., washed, and cultured on protein coated coverslips. Explants were then fixed with 4% PFA and stained with Alexa488-fluor-phalloidin (1:50; Molecular Probes). Fiber length was quantified using Image Pro 5.0.
Statistical analysis of retinal outgrowth assays was performed using Student's two-tail t-test using Excel (Microsoft). Results were expressed as the mean±SEM (n=at least 3 independent experiments; 2 duplicates per independent experiment, >10 explants per duplicate).

[3] = system: retinal ganglion cells (RGCs); test: RGC survival in vivo 14 days after axotomy; parameters: species or system rat; conditions: for increase of RGC survival vs. control / RGC survival: injected intra-ocularly, 14 days after axotomy; for RGC survival: control 361±19
[4] = system: Neogenin association with lipid rafts; test: Lipid raft fractionation of injected chick brain/tecta; type: in vivo; conditions: injected into chick brain/optic tectum one day before fractionation
Method: Injected chick E8 tecta (4Ig, 2 mg/mL; N-raft, 1 mg/mL; methyl-β-cyclodextrin (10 mM)) or transfected cells (Neogenin and RGMa) were collected 24 hours later, lysed and placed at the bottom of a sucrose density gradient (0.9-0.8-0.75-0.7-0.6-0.5-0.4-0.2 M) and centrifuged at 38,000 rpm for 16 hours in SW 60 rotor (Beckman Instruments Inc.).
Proteins (4Ig, 2 mg/ml; N-Raft, 1 mg/mL; RGMaΔ, 5 mg/ml; methyl-β-cyclodextrin (10 mM)) were injected in chick E8 optic tectum and tecta were collected 24 hrs later. HEK cells were transfected with Neogenin and different RGMa constructs and collected 48 hrs later. For treatment with RGMaΔ, Neogenin transfected cells were treated with RGMaΔ (2 mg/ml) and BMP-2 (100 nM) and further incubated for 1 hr at 37° C. Tecta (3 tecta for each set of experiment) and/or cells were solubilized in chilled buffer (25 mM Tris-HCl, pH 7.4, 150 mM NaCl, 5 mM EDTA and protease inhibitor cocktail) and passed through G25 and G30 needles, respectively, and centrifuged at 800 g for 10 min at 4° C. Cold Triton X-100 was added to the post nuclear supernatant to a final concentration of 1% and incubated on ice for 1 hour. 2× volume of 2M sucrose was added and sample placed at the bottom of a sucrose density gradient (0.9-0.8-0.75-0.7-0.6-0.5-0.4-0.2 M) and centrifuged at 38,000 rpm for 16 hours in SW 60 rotor (Beckman Instruments Inc.). 400 μl fractions were collected from top (top numbered 1 and next eight fractions numbered consequently) and stored at −80° C.
As such, it was examined if overexpressing recombinant 4Ig and N-Raft competed with the endogenous 4Ig and N-Raft domains to displace Neogenin from the lipid raft fractions to the non-lipid raft fractions. Specifically, N-Raft, 4Ig-domain, or a control peptide, which was amino acid residues 50-99 of RGMa (also referred to herein as “N-RGMa^50-99”), was injected into the optic tectum at E8. The tecta were collected a day later for fractionation-analyses.

Molecule | reduction of cell death (relative PI intensity) [1] | outgrowth of retinal explants grown on RGMa proteins, peptide added to medium [2] | effect on axonal outgrowth when provided as growth substrate (in trans) ([2]; protein as substrate) | increase of RGC survival vs. control [3] | RGC survival [3] | Neogenin localization in membrane fractions [4] | enhancement of cell survival vs. control ([1]; perturbing lipid rafts) | axonal outgrowth on RGMa proteins after lipid raft disruption ([2]; 10 mM MβCD or 2 U/ml of CO) | increase of RGC survival ([3]; systemic application (intraperitoneal, IP))
N-Raft: peptide spanning amino acids 28-73 of RGMa (SEQ ID NO:2) (SPCKILKCNSEFWAATSGSHHLGAEETPEFCTALRAYAHCTRRTAR; N-Raft - amino acids 28-73 of RGMa) | about 40% | restored outgrowth | no effect | about 2 fold | 652±24 cells/mm^2 | relocalized from the lipid raft fractions to the heavy fractions | – | – | –
methyl-β-cyclodextrin [MβCD, reference compound] | – | – | – | – | – | recovered in the non-lipid raft fraction | about 50% | restored to control values | about 2 fold
B1 | about 40% | restored outgrowth | – | about 2 fold | 682±21 cells/mm^2 | relocalized from the lipid raft fractions to the heavy fractions | – | – | –
